Values quoted from earlier work, collected in US20100212666A1 (priority 2006, published 2010).

Details: in vivo

CC(C)c1cccc(C(C)C)c1O [propofol]
Effect on resting ventilation at 1 C50 for respiratory depression: minimally depresses resting ventilation
Sedation at 1 C50 for respiratory depression: adequate sedation
